In PubChem BioAssay (NCI):
Where “and” joins values, the source holds several entries; their conditions need not be identical. Equal entries are not always repeated.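 How tested: cells in 96-well plates exposed to compound for 48 hours at five concentrations. GI50 is the concentration that inhibits growth by half. Definition used: TGI = concentration required for complete inhibition of growth.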

How the values were obtained:
Assay in all cases: inhibition of tumour cell growth, NCI panel, 48 h
[1] = test system: HOP-92 NSCLC
[2] = test system: RPMI-8226 leukemia
[3] = test system: SW-620 colon
[4] = test system: SN12C renal
[5] = test system: RXF 393 renal
[6] = test system: NCI-H522 lung
[7] = test system: A549 NSCLC
[8] = test system: HCT-116 colon
[9] = test system: NCI/ADR-RES ovarian
[10] = test system: SF-268 CNS

Structure (SMILES)	GI50 [1]	TGI [1]	GI50 [2]	TGI [2]	GI50 [3]	TGI [3]	GI50 [4]	TGI [4]	GI50 [5]	TGI [5]	GI50 [6]	TGI [6]	GI50 [7]	TGI [7]	GI50 [8]	TGI [8]	GI50 [9]	TGI [9]	GI50 [10]	TGI [10]
CCN(CC)c1ccc(/C=N/NC(=O)CSc2nc3ccccc3c(=O)n2CCc2ccc(S(N)(=O)=O)cc2)c(O)c1	2.15 µM	75.2 µM	0.417 µM	2.44 µM	3.12 µM	> 100 µM	1.86 µM	> 100 µM	2.17 µM	32.2 µM	3.17 µM	> 100 µM	3.1 µM	> 100 µM	0.927 µM	10.7 µM	> 100 µM	> 100 µM	2.05 µM	> 100 µM
COc1cc(Nc2nc3cc(N)cc(N)c3nc2-c2ccccc2)cc(OC)c1OC	2.73 µM	21 µM	12.4 µM	32.4 µM	24.1 µM	> 100 µM	20.4 µM	83.7 µM	14.4 µM	34.4 µM	18.2 µM	53.1 µM	29.8 µM	> 100 µM	15.4 µM	34.1 µM	14.4 µM	44.1 µM	18.1 µM	60.8 µM
CC(C)(CN1CCCCC1)C(=O)/C=C/c1ccc(/C=C/C(=O)C(C)(C)CN2CCCCC2)cc1		1.58 µM		0.663 µM		0.463 µM		0.589 µM		0.745 µM		0.167 µM		2.97 µM		1.1 µM		2.36 µM		1.71 µM
CS(=O)(=O)Nc1cncc(-c2ccc3ncnc(Nc4ccc(F)c(Cl)c4)c3c2)c1	0.369 µM	4.82 µM	2.24 µM	5.42 µM	3.15 µM	11.8 µM	2.6 µM	15.2 µM	1.49 µM	5.87 µM	1.01 µM	4.1 µM	3.75 µM	17.4 µM	1.97 µM	5.77 µM	15.4 µM	60 µM	2.63 µM	18.7 µM
CC(C)C1=CC(=O)C(C)(C2C(O)CC3(C)C4CC=C5C(CCC(OC6OC(CO)C(O)C(O)C6OC6OC(C)C(O)C(O)C6O)C5(C)C)C4(C)C(=O)CC23C)O1 (stereo not given)		> 100 µM		> 100 µM		> 100 µM		> 100 µM		> 100 µM		> 100 µM		> 100 µM		> 100 µM		> 100 µM		> 100 µM
CC(N)C(Cc1ccc(Cl)cc1)c1ccc(Cl)cc1 (stereo not given)	5.59 µM	19.9 µM	6.48 µM	22.2 µM	4.46 µM	16.9 µM	11.4 µM	26.7 µM	11.7 µM	25.5 µM	11.4 µM	26.1 µM	14 µM	29.4 µM	4.05 µM	16.4 µM	13.4 µM	36.9 µM	11.4 µM	26.5 µM
CCN(Cc1ccc(C)cc1)c1ccc(CO)c(Cl)c1	1.86 µM	15.3 µM	3.32 µM	30.6 µM	0.763 µM	16.5 µM	10.6 µM	25.8 µM	4.71 µM	18.9 µM	11.5 µM	25.7 µM	1.55 µM	16.2 µM	0.0966 µM	4.11 µM	11.1 µM	25.3 µM	15 µM	30.3 µM
CCN1C(=S)N(c2ccccc2)C2NC(=S)N(/N=C/C=C/c3ccccc3OC)C21 (stereo not given)	3.98 µM	> 100 µM	0.377 µM	> 24.8 µM	0.404 µM	> 100 µM	0.541 µM	> 100 µM	0.189 µM	0.65 µM	0.224 µM	1.26 µM	0.607 µM	> 100 µM	0.36 µM	> 100 µM	0.307 µM	> 100 µM	0.706 µM	> 91 µM
CC(=O)c1ccc2c(c1)c1cc(C(C)=O)ccc1n2CCNC(C)C	0.764 µM	4.27 µM	0.308 µM	1.05 µM	0.249 µM	2.34 µM	0.325 µM	2.07 µM	0.289 µM	1.79 µM	0.257 µM	1.13 µM	0.433 µM	4.31 µM	0.251 µM	3.69 µM	0.371 µM	8.09 µM	0.417 µM	3.33 µM
O=c1[nH]c2ccccc2c2ccccc12	39.8 µM	> 100 µM	> 100 µM	> 100 µM	> 100 µM	> 100 µM	> 100 µM	> 100 µM	> 100 µM	> 100 µM	> 100 µM	> 100 µM	> 100 µM	> 100 µM	> 100 µM	> 100 µM	> 100 µM	> 100 µM	> 100 µM	> 100 µM
O=Nc1ccc(O)c(=O)cc1	0.998 µM	3.39 µM	1.05 µM	3.97 µM	0.657 µM	2.35 µM	2.95 µM	12.4 µM	0.572 µM	1.59 µM	0.141 µM	0.524 µM	12.3 µM	68.9 µM	0.961 µM	3.49 µM	2.6 µM	10.6 µM	3.43 µM	10.6 µM
O=C(Cc1ccc(/C=C/C(=O)c2ncc[nH]2)cc1)Nc1ccc(F)cc1	9.11 µM	30.5 µM	1.27 µM	7.46 µM	1.43 µM	6.78 µM	2.93 µM	27.1 µM	3.44 µM	8.92 µM	3.38 µM	9.42 µM	6.94 µM	> 33.3 µM	1.89 µM	6.92 µM	7.18 µM	> 33.3 µM	5.1 µM	26.3 µM
O=S(=O)(NCCCNc1nccc(-c2c(-c3ccc(O)cc3)nc3sccn23)n1)c1ccc(F)cc1	2.65 µM	8.56 µM	1.58 µM	4.72 µM	3.66 µM	> 100 µM	1.84 µM	> 100 µM	2.74 µM	> 100 µM	1.83 µM	6.27 µM	2.64 µM	20.3 µM	1.25 µM	4.77 µM	4.59 µM	> 100 µM	2.94 µM	14.7 µM
CN(c1ncccc1CNc1nc(Nc2ccc3c(c2)CC(=O)N3)ncc1C(F)(F)F)S(C)(=O)=O	0.0987 µM and 0.192 µM	1.85 µM and 5.99 µM	2.75 µM and 2.39 µM	10.2 µM and 6.94 µM	1.56 µM and 2.89 µM	> 32.7 µM	2.88 µM and 2.95 µM	> 100 µM	1.61 µM and 1.48 µM	3.98 µM and 4.08 µM	1.81 µM and 2.24 µM	5.41 µM and 7.71 µM	2.56 µM and 2.92 µM	12.2 µM and > 10 µM	1.52 µM and 2.5 µM	12.6 µM and > 10 µM	13 µM	> 85.8 µM	2.33 µM and 2.65 µM	13 µM and > 10 µM
